Assay results: patent US20190262300A1, “COMPOSITION FOR PREVENTING OR TREATING PSORIASIS CONTAINING MONOACETYL DIACYLGLYCEROL COMPOUND” (ENZYCHEM LIFESCIENCES CORPORATION, priority 2016, published 2019)

What was measured:
Format in all cases: in vivo, Balb/c mice
[1] = system: IL-17; experiment: Immunohistochemical staining of IL-17 expression in IMQ-induced psoriatic skin; details: PLAG 250 mg/kg/day oral day 0 to day 4 with Aldara cream 40 mg/day; back skin
Description: (§1) In order to confirm the preventive and therapeutic effects of psoriasis by 1-palmitoyl-2-linoleoyl-3-acetylglycerol (EC-18 or PLAG), imiquimod (hereinafter, referred to as IMQ), which is commonly used to induce skin inflammation i.e., psoriasis, such as infiltration of immune cells, epidermal hyperplasia, etc., was used as a ligand for TLR7 and TLR8 to carry out an experiment using psoriasis-induced mouse models. As an experiment model, 6 to 8-week-old female Balb/c-based mice (KOATECH, Pyeongtaek, Korea) were maintained under a specific pathogen free (SPF) environment and used. PLAG (ENZYCHEM LIFESCIENCES, Korea) was prepared before in vivo or in vitro treatment. Also, statistical analysis was performed using a paired t-test.
(§2) Mice were randomly divided into three groups: control group, psoriasis-induced group, and PLAG group. As the IMQ, Aldara cream (3M Health Care Limited, UK) containing 5% of IMQ was used.
(§3) For 5 days from day 0 to day 4, the control group was treated with vaseline (Unilever, UK) and PBS, the psoriasis-induced group was treated with Aldara cream and PBS, and the PLAG group was treated with Aldara cream and PLAG. Vaseline and Aldara cream were applied to the back of mice at a dose of 40 mg/day, and PBS and PLAG were orally administered at a dose of 250 mg/kg/day. On Day 5, which was the 6th day, the mice were sacrificed. […]

[2] = system: psoriasis-induced mouse models (IMQ); experiment: H&E histology of back skin (IMQ-induced chronic inflammatory skin disorder); details: PLAG 250 mg/kg/day oral day 0 to day 4 with Aldara cream 40 mg/day
Description: as §1, §2
For 5 days from day 0 to day 4, the control group was treated with vaseline (Unilever, UK) and PBS, the psoriasis-induced group was treated with Aldara cream and PBS, and the PLAG group was treated with Aldara cream and PLAG. Vaseline and Aldara cream were applied to the back of mice at a dose of 40 mg/day, and PBS and PLAG were orally administered at a dose of 250 mg/kg/day. On Day 5, which was the 6th day, the mice were sacrificed.
The thickness of the back skin of the mice of Example 1 was stained with the following H&E (Hematoxylin and Eosin) staining method, and histologically observed and evaluated under an optical microscope (Olympus, Tokyo, Japan) 5. The H&E staining method is as follows:
The back skin tissue of the mice was fixed in a 10% buffered formalin solution for 24 hours, embedded in paraffin and cut into 4 μm-thick sections. After removing paraffin and rehydrating the sections, the sections were stained with hematoxylin and eosin.

[3] = system: neutrophil recruitment in the back skin; experiment: Immunohistochemical staining of neutrophil recruitment in back skin; details: PLAG 250 mg/kg/day oral day 0 to day 4 with Aldara cream 40 mg/day
Description: as §1, §2, §3

[4] = system: psoriasis-induced mouse models (IMQ); experiment: Size and weight of spleen in IMQ-induced psoriasis mice; details: PLAG 250 mg/kg/day oral day 0 to day 4 with Aldara cream 40 mg/day, vs control group
Description: as §1, §2
For 5 days from day 0 to day 4, the control group was treated with vaseline (Unilever, UK) and PBS, the psoriasis-induced group was treated with Aldara cream and PBS, and the PLAG group was treated with Aldara cream and PLAG. […]
The size of the spleen removed from the mice of Example 1 was measured using a ruler, and the weight was measured using a scale.

[5] = system: psoriasis-induced mouse models (IMQ); experiment: Keratinization and thickness of back skin of IMQ-induced psoriasis mice; details: vs psoriasis-induced group
Description: as §1
Mice were randomly divided into three groups: control group, psoriasis-induced group, and PLAG group. As the IMQ, Aldara cream (3M Health Care Limited, UK) containing 5% of IMQ was used. […]
In order to investigate whether PLAG prevents the progression of psoriasis, psoriasis was induced using IMQ cream (Aldara cream) as in Example 1. […] Subsequently, for the measurement of thickness of back skin, the back skin was removed, and the thickness of the removed back skin was measured using a caliper. The thickness of the measured back skin is shown in the graph of FIG. 3(B).

SMILES: CCCCC/C=C\C/C=C\CCCCCCCC(=O)OC(COC(C)=O)COC(=O)CCCCCCCCCCCCCCC (racemic) [PLAG, 1-palmitoyl-2-linoleoyl-3-acetyl-rac-glycerol]
- IL-17 expression in the skin blood vessels (immunohistochemistry) [1]: significantly inhibited
- hair follicles (H&E) [2]: present as in the control group
- neutrophils between the stratum corneum (H&E) [2]: not found
- thicknesses of the stratum corneum and the epidermis (H&E) ([2]; vs psoriasis-induced group): remarkably reduced
- level of neutrophil recruitment in back skin (NIMP-R14 immunohistochemistry) [3]: significantly lower than that in the psoriasis-induced group
- size of spleen ([4]; ruler): increased compared to the control group
- weight of spleen ([4]; scale): maintained the same as the weight of spleen of the control group
- thickness of the back skin (caliper) ([5]; PLAG 250 mg/kg/day oral day 0 to day 4 with Aldara cream 40 mg/day, day 5): significantly decreased
- keratosis on the back of the mice ([5]; PLAG 250 mg/kg/day oral day 0 to day 4 with Aldara cream (5% IMQ) 40 mg/day, photographed day 5): remarkably alleviated
